Reference: patent US10479784B2, “Substituted pyrazin-2-amines as inhibitors of ATR kinase” (Vertex Pharmaceuticals Incorporated, priority 2008, dated 2019)

target: full-length ATR (Homo sapiens (Human), UniProt Q13535); test: ATR Inhibition Assay (radioactive-phosphate incorporation); assay type: biochemical; details: read-out: ATR Ki
Procedure, shortened: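 Full-length human ATR (5 nM) was assayed at 25 °C in 50 mM Tris/HCl pH 7.5, 10 mM MgCl2, 1 mM DTT, with 10 μM [γ-33P]ATP and 800 μM peptide, after 10-min compound preincubation. Reactions were stopped after 24 h, captured on phosphocellulose and counted; Ki(app) came from non-linear regression of initial rates.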

Chain of full-length ATR (Q13535 whole entry): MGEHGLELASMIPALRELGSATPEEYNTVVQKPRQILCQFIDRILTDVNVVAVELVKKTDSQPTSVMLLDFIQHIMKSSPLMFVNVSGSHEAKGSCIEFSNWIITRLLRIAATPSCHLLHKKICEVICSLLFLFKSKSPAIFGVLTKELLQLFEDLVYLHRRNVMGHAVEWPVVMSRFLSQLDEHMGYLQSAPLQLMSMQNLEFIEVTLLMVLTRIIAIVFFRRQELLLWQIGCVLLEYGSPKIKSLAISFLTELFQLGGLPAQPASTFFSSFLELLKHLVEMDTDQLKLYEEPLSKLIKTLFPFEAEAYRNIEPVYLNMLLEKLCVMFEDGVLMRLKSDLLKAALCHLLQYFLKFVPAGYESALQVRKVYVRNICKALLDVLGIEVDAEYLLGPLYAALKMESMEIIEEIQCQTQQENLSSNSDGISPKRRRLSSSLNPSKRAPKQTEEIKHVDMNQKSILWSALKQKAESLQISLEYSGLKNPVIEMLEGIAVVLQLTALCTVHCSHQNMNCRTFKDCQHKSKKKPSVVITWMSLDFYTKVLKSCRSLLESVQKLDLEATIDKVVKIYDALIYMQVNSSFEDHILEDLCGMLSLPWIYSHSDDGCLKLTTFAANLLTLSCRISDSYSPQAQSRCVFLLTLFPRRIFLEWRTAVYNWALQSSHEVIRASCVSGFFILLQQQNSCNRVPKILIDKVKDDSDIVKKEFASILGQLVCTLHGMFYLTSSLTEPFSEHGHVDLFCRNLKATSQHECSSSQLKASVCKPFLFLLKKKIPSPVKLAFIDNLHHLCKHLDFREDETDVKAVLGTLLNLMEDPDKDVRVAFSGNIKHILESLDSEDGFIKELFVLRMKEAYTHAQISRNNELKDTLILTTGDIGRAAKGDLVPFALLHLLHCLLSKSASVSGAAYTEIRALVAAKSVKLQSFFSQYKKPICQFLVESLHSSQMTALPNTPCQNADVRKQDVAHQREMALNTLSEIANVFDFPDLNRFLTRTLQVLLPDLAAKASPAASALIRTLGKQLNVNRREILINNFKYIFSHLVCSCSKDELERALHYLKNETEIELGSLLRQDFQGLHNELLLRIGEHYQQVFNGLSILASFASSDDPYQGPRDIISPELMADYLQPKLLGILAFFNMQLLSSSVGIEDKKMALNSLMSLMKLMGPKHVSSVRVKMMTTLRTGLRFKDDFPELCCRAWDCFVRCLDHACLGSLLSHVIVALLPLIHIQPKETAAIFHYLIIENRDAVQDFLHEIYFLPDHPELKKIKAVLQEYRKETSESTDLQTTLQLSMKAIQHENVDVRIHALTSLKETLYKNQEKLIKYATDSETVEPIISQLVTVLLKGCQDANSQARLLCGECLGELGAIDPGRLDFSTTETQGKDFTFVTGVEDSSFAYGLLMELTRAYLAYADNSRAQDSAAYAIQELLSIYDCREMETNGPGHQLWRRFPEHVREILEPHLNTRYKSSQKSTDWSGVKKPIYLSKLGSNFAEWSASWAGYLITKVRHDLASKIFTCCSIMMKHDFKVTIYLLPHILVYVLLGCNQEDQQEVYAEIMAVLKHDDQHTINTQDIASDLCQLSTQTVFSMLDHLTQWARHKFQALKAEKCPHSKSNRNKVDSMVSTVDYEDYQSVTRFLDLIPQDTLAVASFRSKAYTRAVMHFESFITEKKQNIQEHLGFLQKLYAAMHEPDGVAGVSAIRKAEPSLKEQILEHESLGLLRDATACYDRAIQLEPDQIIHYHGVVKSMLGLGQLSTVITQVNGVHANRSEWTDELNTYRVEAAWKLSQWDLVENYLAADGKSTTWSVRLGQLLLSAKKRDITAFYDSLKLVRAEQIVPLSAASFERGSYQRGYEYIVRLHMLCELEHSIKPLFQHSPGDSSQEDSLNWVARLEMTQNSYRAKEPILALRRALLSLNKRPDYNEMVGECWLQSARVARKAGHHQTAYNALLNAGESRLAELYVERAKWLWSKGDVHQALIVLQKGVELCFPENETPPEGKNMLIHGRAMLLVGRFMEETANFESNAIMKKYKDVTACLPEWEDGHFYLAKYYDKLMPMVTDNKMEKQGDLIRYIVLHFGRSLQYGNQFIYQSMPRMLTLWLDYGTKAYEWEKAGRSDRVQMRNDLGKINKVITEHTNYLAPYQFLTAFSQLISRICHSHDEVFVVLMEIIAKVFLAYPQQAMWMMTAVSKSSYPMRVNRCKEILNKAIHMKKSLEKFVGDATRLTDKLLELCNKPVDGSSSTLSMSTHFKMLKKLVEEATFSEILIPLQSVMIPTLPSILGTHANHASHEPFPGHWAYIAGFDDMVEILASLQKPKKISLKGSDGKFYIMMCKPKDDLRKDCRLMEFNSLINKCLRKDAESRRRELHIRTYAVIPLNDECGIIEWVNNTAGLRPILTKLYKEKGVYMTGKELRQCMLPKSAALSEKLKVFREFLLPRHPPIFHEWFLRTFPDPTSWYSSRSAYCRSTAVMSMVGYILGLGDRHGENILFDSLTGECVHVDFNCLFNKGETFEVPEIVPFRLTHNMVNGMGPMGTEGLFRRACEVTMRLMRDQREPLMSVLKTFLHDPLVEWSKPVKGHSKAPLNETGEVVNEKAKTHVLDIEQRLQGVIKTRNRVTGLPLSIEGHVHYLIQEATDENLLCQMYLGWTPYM

Q: `CN(C)C(=O)c1ccc(-c2cnc(N)c(-c3nnc(-c4ccccc4-c4ccsc4)o3)n2)cc1` [IA-127, 4-[5-amino-6-[5-[2-(3-thienyl)phenyl]-1,3,4-oxadiazol-2-yl]pyrazin-2-yl]-N,N-dimethyl-benzamide] was tested. Which Ki did it give?
A: 0.01 to 0.1 µM

Q: With “(R)-3-amino-N-phenyl-6-(4-(2-(pyrrolidin-1-ylmethyl)pyrrolidine-1-carbonyl)phenyl)pyrazine-2-carboxamide [Compound I-42]” as the molecule, how does the Ki read?
A: 0.1 to 5 µM

Q: With `Nc1ncc(-c2cccnc2)nc1C(=O)Nc1cccc2cc[nH]c12` [Compound V-15] as the molecule, how does the Ki read?
A: 0.1 to 5 µM

Q: `Cc1ccc2nc(-c3nc(-c4ccc(C(=O)N5CCCNCC5)cc4)cnc3N)[nH]c2c1` [III-1, (4-(5-amino-6-(6-methyl-1H-benzo[d]imidazol-2-yl)pyrazin-2-yl)phenyl) (1,4-diazepan-1-yl)methanone] was tested. Which Ki did it give?
A: 0.01 to 0.1 µM

Q: With `Nc1ncc(-c2cccc3ccsc23)nc1-c1nnc(-c2ccccc2)o1` [IA-259, 5-(benzothiophen-7-yl)-3-(5-phenyl-1,3,4-oxadiazol-2-yl)pyrazin-2-amine] as the molecule, how does the Ki read?
A: 0.01 to 0.1 µM

Q: Which Ki does the source give for `CCCCOC(=O)c1nnc(-c2nc(-c3ccc(S(=O)(=O)C(C)C)cc3)cnc2N)o1` [IA-113, butyl 5-[3-amino-6-(4-isopropylsulfonylphenyl)pyrazin-2-yl]-1,3,4-oxadiazole-2-carboxylate] here?
A: 0.01 to 0.1 µM

Q: Which Ki does the source give for `CNCc1ccc(-c2nnc(-c3nc(-c4ccc(S(=O)(=O)C(C)C)cc4)cnc3N)o2)s1` [IA-140, 5-(4-isopropylsulfonylphenyl)-3-[5-[5-(methylaminomethyl)-2-thienyl]-1,3,4-oxadiazol-2-yl]pyrazin-2-amine] here?
A: ≤ 0.01 µM

Q: With `Nc1ncc(-c2ccc(S(=O)(=O)C3CCNCC3)cc2)nc1-c1nnc(-c2ccccc2)o1` [IA-197, 3-(5-phenyl-1,3,4-oxadiazol-2-yl)-5-[4-(4-piperidylsulfonyl)phenyl]pyrazin-2-amine] as the molecule, how does the Ki read?
A: ≤ 0.01 µM

Q: Which Ki does the source give for `CC(=O)c1ccc(-c2cnc(N)c(-c3nnc(-c4ccccc4)o3)n2)cc1` [IA-110, 1-[4-[5-amino-6-(5-phenyl-1,3,4-oxadiazol-2-yl)pyrazin-2-yl]phenyl]ethanone] here?
A: 0.01 to 0.1 µM

Q: `CC(C)S(=O)(=O)c1ccc(-c2cnc(N)c(-c3nnc(NC(=O)[C@@H]4CCCN4)o3)n2)cc1` [IA-217, (2S)—N-[5-[3-amino-6-(4-isopropylsulfonylphenyl)pyrazin-2-yl]-1,3,4-oxadiazol-2-yl]pyrrolidine-2-carboxamide] was tested. Which Ki did it give?
A: 0.1 to 5 µM

Q: Which Ki does the source give for `CC(C)(C)OC(=O)N1CCCN(C(=O)c2ccc(-c3cnc(N)c(-c4nnc(-c5ccccc5)o4)n3)cc2)CC1` [IA-28] here?
A: ≤ 0.01 µM

Q: `CC(C)S(=O)(=O)c1ccc(-c2cnc(N)c(-c3nnc(-c4ccc(O)cc4)o3)n2)cc1` [IA-193, 4-[5-[3-amino-6-(4-isopropylsulfonylphenyl)pyrazin-2-yl]-1,3,4-oxadiazol-2-yl]phenol] was tested. Which Ki did it give?
A: ≤ 0.01 µM

Q: `CN(C)CCS(=O)(=O)c1ccc(-c2cnc(N)c(-c3nnc(-c4ccccc4)o3)n2)cc1` [IA-169, 5-[4-(2-dimethylaminoethylsulfonyl)phenyl]-3-(5-phenyl-1,3,4-oxadiazol-2-yl)pyrazin-2-amine] was tested. Which Ki did it give?
A: ≤ 0.01 µM

Q: For `Cc1ccc2nc(-c3nc(-c4ccc(C(=O)N5CCCN(C)CC5)cc4)cnc3N)[nH]c2c1` [III-5, (4-(5-amino-6-(6-methyl-1H-benzo[d]imidazol-2-yl)pyrazin-2-yl)phenyl)(4-methyl-1,4-diazepan-1-yl)methanone], which Ki is on record?
A: 0.01 to 0.1 µM

Q: For `CS(=O)(=O)c1ccc(-c2cnc(N)c(-c3nc4ccc(C#N)cc4[nH]3)n2)cc1` [Compound I-111, 2-(3-amino-6-(4-(methylsulfonyl)phenyl)pyrazin-2-yl)-1H-benzo[d]imidazole-6-carbonitrile], which Ki is on record?
A: 0.01 to 0.1 µM

Q: Which Ki does the source give for `C[S+]([O-])c1ccccc1-c1cnc(N)c(-c2nnc(-c3cccc(CN)c3)o2)n1` (stereo not shown) [IA-257, 3-[5-[3-(aminomethyl)phenyl]-1,3,4-oxadiazol-2-yl]-5-(2-methylsulfinylphenyl)pyrazin-2-amine] here?
A: ≤ 0.01 µM

Q: How did the Ki turn out when `CC(CCO)S(=O)(=O)c1ccc(-c2cnc(N)c(-c3nnc(-c4ccccc4F)o3)n2)cc1` (stereo not shown) [IA-339, 3-[4-[5-amino-6-[5-(2-fluorophenyl)-1,3,4-oxadiazol-2-yl]pyrazin-2-yl]phenyl]sulfonylbutan-1-ol] was run?
A: ≤ 0.01 µM

Q: How did the Ki turn out when `CC(C)S(=O)(=O)c1ccc(-c2cnc(N)c(-c3nnc(-c4cc(C#N)cs4)o3)n2)cc1` [IA-143, 5-[5-[3-amino-6-(4-isopropylsulfonylphenyl)pyrazin-2-yl]-1,3,4-oxadiazol-2-yl]thiophene-3-carbonitrile] was run?
A: 0.01 to 0.1 µM

Q: `CC(=O)Nc1ccc(NC(=O)c2nc(-c3cccnc3)cnc2N)cc1` [Compound I-93, 3-amino-N-(4-ethanamidophenyl)-6-(pyridin-3-yl)pyrazine-2-carboxamide] was tested. Which Ki did it give?
A: 0.1 to 5 µM

Q: How did the Ki turn out when `CCc1ccccc1-c1cnc(N)c(-c2nnc(-c3ccccc3)o2)n1` [IA-57] was run?
A: 0.1 to 5 µM

Q: For `Nc1ncc(-c2ccc(C(=O)NCCN3CCCC3)cc2)nc1-c1nc2ccccc2[nH]1` [III-6, 4-(5-amino-6-(1H-benzo[d]imidazol-2-yl)pyrazin-2-yl)-N-(2-(pyrrolidin-1-yl)ethyl)benzamide], which Ki is on record?
A: 0.01 to 0.1 µM

Q: For `CN(C)CCN(C)C(=O)c1cccc(-c2cnc(N)c(C(=O)Nc3ccccc3)n2)c1` [Compound I-52, 3-amino-6-(3-((2-(dimethylamino)ethyl)(methyl)carbamoyl)phenyl)-N-phenylpyrazine-2-carboxamide], which Ki is on record?
A: 0.1 to 5 µM

Q: How did the Ki turn out when `Nc1ncc(-c2ccc(C(=O)N3CCCC3)cc2)nc1C(=O)Nc1ccccc1` [Compound I-70, 3-amino-N-phenyl-6-(4-(pyrrolidine-1-carbonyl)phenyl)pyrazine-2-carboxamide] was run?
A: 0.01 to 0.1 µM

Q: Which Ki does the source give for `Nc1ncc(-c2cccnc2)nc1C(=O)Nc1cccc2cc[nH]c12` [Compound I-83, 3-amino-N-(1H-indol-7-yl)-6-(pyridin-3-yl)pyrazine-2-carboxamide] here?
A: 0.1 to 5 µM

Q: `CS(=O)(=O)c1ccc(-c2cnc(N)c(C(=O)Nc3n[nH]c4ccccc34)n2)cc1` [Compound V-18] was tested. Which Ki did it give?
A: 0.1 to 5 µM

Q: How did the Ki turn out when `CN(C)C(=O)c1ccc(-c2cnc(N)c(-c3nnc(NCCc4ccccc4)o3)n2)cc1` [IA-156, 4-[5-amino-6-[5-(phenethylamino)-1,3,4-oxadiazol-2-yl]pyrazin-2-yl]-N,N-dimethyl-benzamide] was run?
A: 0.1 to 5 µM

Q: For `Nc1ncc(-c2ccoc2)nc1-c1nnc(-c2ccccc2)o1` [IA-170, 5-(3-furyl)-3-(5-phenyl-1,3,4-oxadiazol-2-yl)pyrazin-2-amine], which Ki is on record?
A: 0.01 to 0.1 µM

Q: How did the Ki turn out when `CN(C)C(=O)c1ccc(-c2cnc(N)c(-c3nnc(-c4ccccc4OCCN)o3)n2)cc1` [IA-213, 4-[5-amino-6-[5-[2-(2-aminoethoxy)phenyl]-1,3,4-oxadiazol-2-yl]pyrazin-2-yl]-N,N-dimethyl-benzamide] was run?
A: 0.01 to 0.1 µM

Q: For `CC(C)S(=O)(=O)c1ccc(-c2cnc(N)c(-c3nnc(-c4ccccc4)o3)n2)cc1` [IA-116, 5-(4-isopropylsulfonylphenyl)-3-(5-phenyl-1,3,4-oxadiazol-2-yl)pyrazin-2-amine], which Ki is on record?
A: ≤ 0.01 µM

Q: For `NCc1cccc(-c2nnc(-c3nc(-c4cccnc4)cnc3N)[nH]2)c1` [Compound I-143, 3-(5-(3-(aminomethyl)phenyl)-4H-1,2,4-triazol-3-yl)-5-(pyridin-3-yl)pyrazin-2-amine], which Ki is on record?
A: 0.01 to 0.1 µM

Q: For `Nc1ncc(-c2cccc(C(=O)N3CCCC3)c2)nc1C(=O)Nc1ccccc1` [Compound I-63, 3-amino-N-phenyl-6-(3-(pyrrolidine-1-carbonyl)phenyl)pyrazine-2-carboxamide], which Ki is on record?
A: 0.1 to 5 µM
